Results on twelve compounds are retold here after article PMC10385371, “Discovery of Novel Coumarin-Schiff Base Hybrids as Potential Acetylcholinesterase Inhibitors: Design, Synthesis, Enzyme Inhibition, and Computational Studies” (Pharmaceuticals, 2023).

Experiment [1] addresses T1, Acetylcholinesterase (Type VI-S, from Electrophorus electricus) (Electrophorus electricus, UniProt O42275).
T1 construct: purchased Sigma Aldrich Type VI-S (catalogue number not given)
In words: biochemical. The format is biochemical. To be noted: for IC50: read-out: IC50 against AChE; for potency relative to galantamine (positive control): ratio of AChE IC50 values. The method, then: The procedure described by Ellman, slightly modified, was performed to assess the AChE inhibitory activity of synthesized compounds, according to reported procedures in the literature. Detailed protocol is provided in supplementary materials. […]
In vitro inhibition study on AChE
The assay for AChE inhibitory activity was done based on a modified protocol. Acetylcholinesterase (Type VI-S, from Electrophorus electricus), 5,5′-dithiobis-2-nitrobenzoic acid (Ellman's reagent, DTNB) and acetylthiocholine chloride (ATCI) were purchased from Sigma Aldrich. Enzyme solutions were prepared to give 0.28 units/mL aliquots. Stock solutions were prepared by dissolving 1 mg of tested compounds in 1 mL of DMSO and diluted to a final concentration of 1000, 800, 600, 400, 200, 100, and 50 µg/mL. The assay buffer solution A (pH = 8.0) was prepared by taking 93.2 mL of solution (6 g of sodium dihydrogen phosphate was dissolved in 500 mL of deionized water) and mixed with 6.8 mL of solution (7 g of sodium hydrogen phosphate was dissolved in 500 mL of deionized water) and adjusted. 57.7 mL of sodium dihydrogen phosphate and 42.3 mL of sodium hydrogen phosphate were mixed and adjusted to prepare the buffer B (pH = 7.0). […]
fresh solutions of 0.01 M DTNB (0.396 g of DTNB and 15 mg NaHCO3 were dissolved in 100 mL of the buffer B) in a dark place, and 0.075 M ATCI (0.2048 g of ATCI was dissolved in 10 mL of deionized water), were prepared. In 96-well plates, 20 μL of the test compounds, 10 μL of DTNB, 15 μL of the enzyme (AChE) and 140 μL of the buffer solution A, were added in dark conditions and incubated for 15 min, followed by the addition of ATCI (10 μL) and incubated again for the same period. The activity was measured by reading the absorbance of the solution at 412 nm. Blanks containing all the components except the enzyme were carried out.
IC50 values were calculated as the concentration of a compound that produces 50% enzyme activity inhibition using the GraphPad Prism 8 programme package. Results are expressed as the mean ± SD of at least three different experiments performed in triplicate.
Percentage inhibition was calculated by this formula:
% ሺInhibitionሻ = B−AB X 100
• A= absorbance of the enzyme with the test sample;
• B = absorbance of the enzyme without test sample.
• Each experiment was repeated thrice.

Another experiment relates to AChE. To be noted: read-out: IC50 against AChE; cited from earlier work.
Experiment [2] deals with human monoamine oxidase hMAO-A. To be noted: cited from earlier work.
The target of experiment [3] is human monoamine oxidase hMAO-B. To be noted: cited from earlier work.

“And” between values parts separate entries of the source, which are not always exact repeats. Identical values can stand only once.

T1 sequence (O42275 24-633): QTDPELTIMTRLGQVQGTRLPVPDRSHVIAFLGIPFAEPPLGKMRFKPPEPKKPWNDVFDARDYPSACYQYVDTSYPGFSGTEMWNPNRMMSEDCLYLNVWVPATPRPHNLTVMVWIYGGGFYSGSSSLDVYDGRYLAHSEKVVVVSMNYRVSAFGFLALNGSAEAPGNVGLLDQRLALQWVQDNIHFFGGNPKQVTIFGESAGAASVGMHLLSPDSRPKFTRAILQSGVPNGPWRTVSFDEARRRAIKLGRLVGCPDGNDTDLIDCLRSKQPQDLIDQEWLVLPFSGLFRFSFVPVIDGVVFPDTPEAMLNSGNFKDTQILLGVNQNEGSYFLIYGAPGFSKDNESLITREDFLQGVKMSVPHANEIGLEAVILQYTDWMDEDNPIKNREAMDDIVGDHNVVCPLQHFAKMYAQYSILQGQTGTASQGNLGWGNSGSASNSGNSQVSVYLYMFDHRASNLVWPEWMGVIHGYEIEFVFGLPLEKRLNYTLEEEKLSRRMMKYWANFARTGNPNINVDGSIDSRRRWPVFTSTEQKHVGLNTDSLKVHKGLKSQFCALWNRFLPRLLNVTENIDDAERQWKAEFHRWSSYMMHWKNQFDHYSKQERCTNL

`COc1ccc2c(COc3ccc(/C=N/c4ccccc4)cc3)cc(=O)oc2c1` [13a, (E)-7-Methoxy-4-((4-((phenylimino)methyl)phenoxy)methyl)-2H-chromen-2-one]: the IC50 in experiment [1] amounted to 440 ± 16 µM.
On to `COc1ccc(/N=C/c2ccc(OCc3cc(=O)oc4cc(OC)ccc34)cc2)cc1` [13b, (E)-7-Methoxy-4-((4-(((4-methoxyphenyl)imino)methyl)phenoxy)methyl)-2H-chromen-2-one], for which the IC50 in experiment [1] came out at 466 ± 7 µM.
Turning to `COc1ccc2c(COc3ccc(/C=N/c4ccc(Cl)cc4)cc3)cc(=O)oc2c1` [13c, (E)-4-((4-(((4-Chlorophenyl)imino)methyl)phenoxy)methyl)-7-methoxy-2H-chromen-2-one], in experiment [1], the “potency relative to galantamine (positive control)” value is 5 fold and ~ 5 fold; the IC50 is 232 ± 11 µM.
Consider `COc1ccc2c(COc3ccc(/C=N/c4ccc(Cl)cc4)cc3OC)cc(=O)oc2c1` [13d, (E)-4-((4-(((4-Chlorophenyl)imino)methyl)-2-methoxyphenoxy)methyl)-7-methoxy-2H-chromen-2-one], for which the “potency relative to galantamine (positive control)” value in experiment [1] is 5 fold and ~ 5 fold.
`COc1ccc2c(COc3ccc(/C=N/c4ccccc4)cc3OC)cc(=O)oc2c1` [13e, (E)-7-Methoxy-4-((2-methoxy-4-((phenylimino)methyl)phenoxy)methyl)-2H-chromen-2-one]: in experiment [1], the IC50 was determined as 297 ± 6 µM.
On the same count and under the same terms, in the case of `COc1ccc(/N=C/c2ccc(OCc3cc(=O)oc4cc(OC)ccc34)c(OC)c2)cc1` [13f, (E)-7-Methoxy-4-((2-methoxy-4-(((4-methoxyphenyl)imino)methyl)phenoxy)methyl)-2H-chromen-2-one] it was 365 ± 25 µM.
Same read-out and setting: in the case of `COc1ccc(/N=C/c2cccc(OCc3cc(=O)oc4cc(OC)ccc34)c2)cc1` [13g, (E)-7-Methoxy-4-((3-(((4-methoxyphenyl)imino)methyl)phenoxy)methyl)-2H-chromen-2-one] it was 1090 ± 58 µM.
The same measure, in the same setting: in the case of `COc1ccc2c(COc3cc(/C=N/c4ccc(Cl)cc4)ccc3OC)cc(=O)oc2c1` [13i, (E)-4-((5-(((4-Chlorophenyl)imino)methyl)-2-methoxyphenoxy)methyl)-7-methoxy-2H-chromen-2-one] it was 712 ± 44 µM; in that of `COc1ccc2c(COc3cccc(/C=N/c4ccc(Cl)cc4)c3)cc(=O)oc2c1` [13j, (E)-4-((3-(((4-Chlorophenyl)imino)methyl)phenoxy)methyl)-7-methoxy-2H-chromen-2-one], 651 ± 3 µM.
For the compound `Cc1c(O)ccc2c(CC(=O)NCCN3CCN(Cc4ccccc4)CC3)cc(=O)oc12` [compound 3], in the experiment with AChE, the IC50 was 0.04 µM.
For the compound `O=c1oc2ccccc2c(O)c1/N=C/c1ccc(O)c(O)c1O` [compound 4], the IC50 was 0.673 µM in experiment [2] and 0.711 µM in experiment [3].
Take `O=C(N/N=C\c1c2ccccc2cc2ccccc12)c1ccccc1O` [compound 5]: the half-inhibitory concentration (IC50) in the experiment with AChE was 4.12 µM.
